Values of other authors as cited in paper PMC6525986 (Theranostics, 2019).

Target: protein arginine methyltransferase 5 (PRMT5) (Homo sapiens, UniProt O14744)
Experiment: PRMT5 enzymatic inhibition assay
Type: biochemical

Sequence of protein arginine methyltransferase 5 (PRMT5) (O14744 2-637): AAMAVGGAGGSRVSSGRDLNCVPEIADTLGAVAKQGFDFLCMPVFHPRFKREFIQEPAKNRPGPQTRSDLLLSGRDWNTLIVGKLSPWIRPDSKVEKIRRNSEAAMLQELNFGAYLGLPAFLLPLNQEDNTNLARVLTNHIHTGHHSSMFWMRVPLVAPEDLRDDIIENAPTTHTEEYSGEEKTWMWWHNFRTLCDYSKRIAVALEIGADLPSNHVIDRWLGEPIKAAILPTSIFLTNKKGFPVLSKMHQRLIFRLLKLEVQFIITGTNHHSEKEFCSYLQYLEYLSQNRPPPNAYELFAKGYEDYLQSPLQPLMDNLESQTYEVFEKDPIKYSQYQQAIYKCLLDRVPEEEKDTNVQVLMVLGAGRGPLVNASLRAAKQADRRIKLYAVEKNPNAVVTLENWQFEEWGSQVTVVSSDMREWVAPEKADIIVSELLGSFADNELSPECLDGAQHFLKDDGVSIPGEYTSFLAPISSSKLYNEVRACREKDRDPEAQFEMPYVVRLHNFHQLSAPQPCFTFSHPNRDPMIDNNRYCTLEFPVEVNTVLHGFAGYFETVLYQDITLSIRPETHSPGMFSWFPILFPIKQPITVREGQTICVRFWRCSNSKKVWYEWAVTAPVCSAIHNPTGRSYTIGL

Substance: DW14800 [compound 39]
- IC50: 17 nM
